Results as given in the supplement of paper PMC10307832.

Key:
Test in all cases: relative viability (nuclei count vs DMSO), 5 days (fraction); higher = more cells survive
[1] = compound: Nc1ccn([C@@H]2O[C@H](CO)[C@@H](O)C2(F)F)c(=O)n1 [Gemcitabine] + C[C@]1(O)C[C@@H](c2nc(-c3ccc4ccc(-c5ccccc5)nc4c3)c3c(N)nccn32)C1 [Linsitinib] (partner 1 µM)
In short: (§1)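 Relative viability equals treated-well nuclei counts divided by vehicle-well nuclei counts. Counts came from 4× images of lung cancer cell lines grown in 1536-well plates for 5 days after pin-tool dosing on the day after seeding. Dosing used one drug alone or a fixed anchor-drug dose plus five library-drug doses (not always all listed) in √10 steps, and values are medians of duplicate plates.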

[2] = compound: Nc1ccn([C@@H]2O[C@H](CO)[C@@H](O)C2(F)F)c(=O)n1 [Gemcitabine] + Nc1nc2[nH]cc(CCc3ccc(C(=O)N[C@@H](CCC(=O)O)C(=O)O)cc3)c2c(=O)[nH]1 [Pemetrexed] (partner 0.2 µM)
In short: as §1

[3] = compound: Nc1ccn([C@@H]2O[C@H](CO)[C@@H](O)C2(F)F)c(=O)n1 [Gemcitabine] + O=C(CCCCCCC(=O)Nc1ccccc1)NO [Vorinostat] (partner 1 µM)
In short: as §1

[4] = compound: Nc1ccn([C@@H]2O[C@H](CO)[C@@H](O)C2(F)F)c(=O)n1 [Gemcitabine] + O=C(c1cc(Cc2n[nH]c(=O)c3ccccc23)ccc1F)N1CCN(C(=O)C2CC2)CC1 [Olaparib] (partner 8 µM)
In short: as §1

Row | Cell Line | relative viability ([1]; first compound 0.001 µM) | relative viability ([1]; first compound 0.003162 µM) | relative viability ([1]; first compound 0.01 µM) | relative viability ([1]; first compound 0.03162 µM) | relative viability ([1]; first compound 0.1 µM) | relative viability ([2]; first compound 0.001 µM) | relative viability ([2]; first compound 0.003162 µM) | relative viability ([2]; first compound 0.01 µM) | relative viability ([2]; first compound 0.03162 µM) | relative viability ([2]; first compound 0.1 µM) | relative viability ([3]; first compound 0.001 µM) | relative viability ([3]; first compound 0.003162 µM) | relative viability ([3]; first compound 0.01 µM) | relative viability ([3]; first compound 0.03162 µM) | relative viability ([3]; first compound 0.1 µM) | relative viability ([4]; first compound 0.001 µM) | relative viability ([4]; first compound 0.003162 µM) | relative viability ([4]; first compound 0.01 µM) | relative viability ([4]; first compound 0.03162 µM) | relative viability ([4]; first compound 0.1 µM)
1 | NCI-H322M | 0.777 | 0.474 | 0.3 | 0.274 | 0.267 | 0.658 | 0.367 | 0.273 | 0.329 | 0.363 | 0.864 | 0.408 | 0.337 | 0.384 | 0.44 | 0.564 | 0.445 | 0.356 | 0.369 | 0.411
2 | NCI-H358 | 0.653 | 0.327 | 0.186 | 0.23 | 0.157 | 0.145 | 0.148 | 0.146 | 0.118 | 0.108 | 0.988 | 0.186 | 0.0888 | 0.113 | 0.0707 | 0.689 | 0.321 | 0.146 | 0.101 | 0.0993
3 | NCI-H441 | 0.513 | 0.339 | 0.102 | 0.11 | 0.128 | 0.277 | 0.282 | 0.217 | 0.16 | 0.115 | 0.717 | 0.265 | 0.182 | 0.157 | 0.123 | 0.651 | 0.241 | 0.187 | 0.161 | 0.116
4 | NCI-H460 | 0.714 | 0.878 | 0.0967 | 0.0138 | 0.0057 | 0.06 | 0.0638 | 0.0721 | 0.029 | 0.019 | 0.855 | 0.736 | 0.458 | 0.0301 | 0.0175 | 0.529 | 0.426 | 0.333 | 0.0343 | 0.022
5 | NCI-H520 | 1.13 | 0.917 | 0.482 | 0.186 | 0.131 | 0.663 | 0.719 | 0.275 | 0.177 | 0.161 | 0.728 | 0.81 | 0.336 | 0.211 | 0.157 | 0.388 | 0.48 | 0.174 | 0.159 | 0.132
6 | NCI-H596 | 1.11 | 1.06 | 0.727 | 0.384 | 0.357 | 0.531 | 0.491 | 0.476 | 0.403 | 0.319 | 0.657 | 0.497 | 0.272 | 0.251 | 0.2 | 0.733 | 0.714 | 0.384 | 0.336 | 0.311
7 | NCI-H647 | 1.27 | 0.382 | 0.0832 | 0.0779 | 0.0445 | 0.211 | 0.178 | 0.072 | 0.0569 | 0.0589 | 0.435 | 0.129 | 0.0559 | 0.0673 | 0.0443 | 0.574 | 0.103 | 0.0533 | 0.0536 | 0.0389
